Reference: patent US20250339445A1, “Modulators of Orphan Nuclear Receptors for Treating Pancreatitis, Glioblastoma, Sarcopenia and Stroke” (Emory University, priority 2020, published 2025)
Entries after “also recorded” stand apart in the source; their conditions may differ.

Assays:
[1] = Cellular toxicity assay, CEM cells; type: cell-based; details: human, CEM cells (human lymphoblastoid), compared to cycloheximide (+ control)
Procedure: (§1) The toxicity of the compounds was assessed in human PBM, CEM (human lymphoblastoid), and Huh-7 cells, as described previously (see Schinazi R. F., Sommadossi J.-P., Saalmann V., Cannon D. L., Xie M.-Y., Hart G. C., Smith G. A. & Hahn E. F. Antimicrob. Agents Chemother. 1990, 34, 1061-67). Cycloheximide was included as positive cytotoxic control, and untreated cells exposed to solvent were included as negative controls. The cytotoxicity IC50 was obtained from the concentration-response curve using the median effective method described previously (see Chou T.-C. & Talalay P. Adv. Enzyme Regul. 1984, 22, 27-55; Belen'kii M. S. & Schinazi R. F. Antiviral Res. 1994, 25, 1-11).

[2] = Cellular toxicity assay, Huh-7 cells; type: cell-based; details: human, compared to cycloheximide (+ control)
Procedure: as §1

[3] = tested on: high-fat-fed C57BL/6 mice; experiment: High-fat-diet-fed C57BL/6 mice treated with Compound 1 and/or antagomiR-122; type: in vivo
Procedure: C57BL/6 mice were fed a 50% high fat diet (HFD) for four weeks. The control cohort received three hydrodynamic tail vein injections of a 5 μg antagomiR-control and six i.p injections of saline over three weeks. A second cohort was hydrodynamic tail vein injected with 5 μg antagomiR-122 (the reverse complement that inhibits activity of miR-122) three times and i.p injections of saline six times over three weeks. A third cohort was injected i.p. with Compound 1 (7.5 mg/kg) twice a week plus antagomiR-control once a week over the course of 3 weeks. The final cohort was injected i.p. with Compound 1 (7.5 mg/kg) twice a week plus antagomiR-122 injections once a week over the course of 3 weeks.
(§2) Male C57BL/6J mice, 7 to 8 weeks old, were housed randomly in standard cages and were fed a HFD, or atherogenic diet (consisting 1% Chol and 0.5% cholic acid, see also Table 6). All mice had free access to water during the experimental period. During the feeding period body weight was monitored every 3 days. In the HFD experiment, after 4 or 6 weeks, the resultant obese mice were treated with antagomiR-122 (5 μg/mouse once a week for 3 weeks), or i.p. injected with Compound 1 (RORα agonist, 7.5 mg/kg twice a week for 3 weeks; or 15 mg/kg 3 times a week for 3 weeks). The obese control (HFD) group was administered only saline with DMSO and antagomiR-control. After 3 weeks of treatment mice were sacrificed and livers were taken for RNA-seq analysis. Livers, white adipose, and skeletal muscle tissues were frozen in liquid nitrogen or in optimum cutting temperature embedded frozen blocks, for further RNA and histologic analysis. In the atherogenic diet experiment mice were treated with 15 mg/kg Compound 1 after 3 weeks with the diet. After 3.5 weeks of treatment, mice were sacrificed, and the livers were frozen in liquid nitrogen or in optimum cutting temperature embedded frozen blocks. Plasma was collected from atherogenic diet-fed mice and saved in −20° C. for ALT and AST analysis using the Reflotron® Analyzer and test-strips (Roche).
In the HFD experiment, after 4 or 6 weeks, the resultant obese mice were treated with antagoMIR122 (5 μg/mouse once a week for 3 weeks), or i.p. injected with Compound 1 (RORα agonist, 7.5 mg/kg twice a week for 3 weeks; or 15 mg/kg 3 times a week for 3 weeks). The obese control (HFD) group was administered only saline with DMSO and antagomiR-control.
Mice were fed with a 50% HFD and after 4 weeks, when fatty liver was already established, they were treated with Compound 1, antagoMIR122 or both compounds together for an additional 3 weeks. […] The weighing of mice began at week 3, one week before treatments were initiated. […] The liver weight of the mice was in accordance with their body weight.

[4] = tested on: high fat diet (HFD) C57BL/6 mice; experiment: HFD-fed C57BL/6 mice, 15 mg/kg Compound 1 (Example 8); type: in vivo
Procedure: as §2
Experimental design: C57BL/6 mice fed for 6 weeks with high fat diet (HFD) were injected with 15 mg/kg Compound 1 (or saline+DMSO) 3 times a week for 3 weeks (n=6).

[5] = tested on: atherogenic diet C57BL/6 mice; experiment: Atherogenic (fibrotic) diet mouse model; type: in vivo
Procedure: as §2
Livers and adipose samples were placed in 4% buffered formaldehyde for 24 hours, followed by 80% ethanol and then embedded in paraffin blocks. Liver and adipose tissues were cut into […], deparaffinized with xylene and hydrated through graded ethanol. For the H&E staining, tissue sections were stained with hematoxylin (Emmonya Biotech Ltd.) and eosin (Leica, Surgipath). Liver macrophages were stained using rat anti-mouse F4/80 antigen (Serotec), followed by anti-Rat HRP (Histofine) and developed with a DAB kit (Zymed). Liver sections were stained for Masson Trichrome (Sigma). Liver CD3+ T cells were stained using Rat anti human-CD3-antibody (Bio-Rad), followed by anti-Rat HRP (Histofine) and developed with AEC (Invitrogen). α-SMA positive cells were stained using mouse anti-Human smooth Muscle Actin antibody (Dako), followed by anti-mouse HRP (Dako) and developed with DAB. The percentage area stained positively per high power field was calculated by ImageJ Software in 5-10 random fields.
Experimental design: C57BL/6 mice fed for 3 weeks with atherogenic diet (to induce fibrosis) and injected with 15 mg/kg Compound 1 (or saline+DMSO) 3 times a week for 3.5 week (n=8).
After 3 weeks of treatment mice were sacrificed and livers were taken for RNA-seq analysis. Livers, gonadal white adipose, and skeletal muscle tissues were frozen in liquid nitrogen or in optimum cutting temperature embedded frozen blocks, for further RNA and histologic analysis. In the atherogenic diet experiment mice were treated with 15 mg/kg Compound 1 after 3 weeks with the diet. After 3.5 weeks of treatment, mice were sacrificed, and the livers were frozen in liquid nitrogen or in optimum cutting temperature embedded frozen blocks. Plasma was collected from atherogenic diet-fed mice and stored at −20° C. for ALT and AST analysis using the Reflotron® Analyzer and test-strips (Roche).

[6] = atherogenic diet, 15 mg/kg 3 times a week for 3.5 weeks
[7] = atherogenic diet, 3 times weekly for 3.5 weeks
[8] = liver, atherogenic diet, 15 mg/kg 3 times a week for 3.5 weeks

O=C1Nc2cc(C(=O)N3CCC(Cc4ccccc4)CC3)ccc2Nc2ccccc21 [Compound 1]
CC50 [1]: 11 µM
CC50 [2]: 10.4 µM
Hepatic lipid droplets and TG content ([3]; 50% HFD, 7.5 mg/kg twice a week, 3 weeks): reduced
Body weight, Compound 1 co-administered with antagomiR-122 ([3]; 50% HFD, 3 weeks): returned exactly to that of control animals
Dgat1 (MIR122 target gene) in the liver ([3]; 50% HFD, 3 weeks of treatment): reduced
Energy expenditure (β-hydroxybutyrate plasma level as surrogate marker) ([3]; 50% HFD, 3 weeks of treatment): increases energy expenditure; also recorded: increase
FGF21 (RORα target gene) in the liver ([3]; 50% HFD, 3 weeks of treatment): increased
MIR122 levels in plasma and muscle (secretion) ([3]; 50% HFD, 3 weeks of treatment): enhanced; also recorded: increase of MIR122
Mature MIR122 level in the liver ([3]; 50% HFD, 3 weeks of treatment): no increase
Muscle TG levels ([3]; 50% HFD, 3 weeks of treatment): reduced
pri- and pre-MIR122 in the liver ([3]; 50% HFD, 3 weeks of treatment): increased significantly
Body weight ([3]; 50% HFD, Compound 1 7.5 mg/kg i.p. twice a week, antagomiR once a week, 3 weeks, 7.5 mg/kg): weight steadily decreased; also recorded: reduces body weight; also recorded: significant decrease in body weight
Hepatic RORα level ([3]; HFD-fed mice): increased the RORα level to its level in mice fed normal diet
Expression of RORα-regulated genes FGF21 and Gpase6 ([4]; HFD 6 weeks, 15 mg/kg 3 times a week for 3 weeks, liver): significantly induced expression
miR-122 and precursors in plasma and liver ([4]; HFD 6 weeks, 15 mg/kg 3 times a week for 3 weeks, 15 mg/kg): induced expression and secretion; also recorded: increased
Hepatic synthesis of triglycerides ([4]; mice fed a HFD or atherogenic diet): reduced hepatic synthesis of triglycerides
Liver vasculature by CD34 staining ([5]; atherogenic diet): no effect
NK cells in the livers ([5]; atherogenic diet): significant reduction in NK cells
Biomarkers of inflammation (Tgfb2 and TgfbR2) and fibrosis (Acta1, Col1A1 and Col3A1), liver mRNA [5, 6]: reducing
Mature miR-122 in tissue (liver) and plasma [5, 6]: increased
ALT and AST plasma levels (liver enzymes) ([5]; atherogenic diet, 15 mg/kg 3 times a week for 3.5 weeks, 15 mg/kg): significantly improved; also recorded: reducing significantly
Liver fibrosis (Masson Trichrome and αSMA staining) [5, 7]: significant reduction in liver fibrosis
Liver inflammation (H&E, CD3 and F4/80 staining) [5, 7]: significantly improved liver inflammation; also recorded: improved liver inflammation significantly
Immune infiltrate by H&E staining [5, 8]: decreased immune infiltrate
Myeloid infiltrate by F4/80 staining [5, 8]: decreased levels of myeloid infiltrate
T-cell density by CD3 staining [5, 8]: decreased T-cell density
Reduction of fibrotic area, Masson Trichrome (M.T) ([5]; liver, versus untreated cohort): 5 fold
Reduction of fibrotic area, α-SMA ([5]; liver, versus untreated cohort): 7 fold
